{"source": "paper PMC8359946", "about": "“Expanding the Substrate Scope of Nitrating Cytochrome P450 TxtE by Active Site Engineering of a Reductase Fusion” (Chembiochem, 2021)", "key": {"[1]": {"target": "T1, TxtE (His6-TxtE-BM3R fusion) (Streptomyces scabiei, UniProt C9ZDC6)", "T1 construct": "His6-TxtE-BM3R fusion with the full length heme-reductase linker (27 aa) from CYP102A1", "experiment": "UV-Vis difference spectroscopy titration; purified-enzyme nitration assay", "assay_type": "binding"}, "[2]": {"target": "T2, TxtE (His6-TxtE-BM3R fusion) (Streptomyces scabiei, UniProt C9ZDC6, R59C)", "T2 construct": "His6-TxtE-BM3R(R59C)", "experiment": "UV-Vis difference spectrum (type II); LC-MS nitration assay with purified enzyme", "assay_type": "binding"}}, "data": [{"compound": "N[C@@H](Cc1c[nH]c2ccccc12)C(=O)O", "note": "[L-tryptophan]", "values": [{"measurement": "Kd", "setting": "[1]", "value": "84 ± 2", "unit": "µM"}]}, {"compound": "NCCc1c[nH]c2ccccc12", "note": "[compound 1, tryptamine]", "values": [{"measurement": "UV-Vis difference spectrum (type II); LC-MS nitration assay with purified enzyme", "setting": "[2]", "value": "a similar spectrum is observed for binding of tryptamine to His6‐TxtE‐BMR3(R59C)"}]}]}
